Results: ChEMBL document CHEMBL1131653, “Syntheses of D- and L-myo-inositol 1,2,4,5-tetrakisphosphate and stereoselectivity of the I(1,4,5)P3 receptor binding” (Bioorg Med Chem Lett, 1998)

Target: Inositol 1,4,5-trisphosphate-gated calcium channel ITPR3 (Bos taurus, UniProt Q8WN95)
Test: Binding affinity towards Inositol 1,4,5-trisphosphate receptor was evaluated by the standard competitive binding assay using 1.25 nM [3H]D-I(1,4,5)P3 binding protein, prepared from bovine adrenal cortex
Assay type: tissue-based

Chain of Inositol 1,4,5-trisphosphate-gated calcium channel ITPR3 (Q8WN95 whole entry): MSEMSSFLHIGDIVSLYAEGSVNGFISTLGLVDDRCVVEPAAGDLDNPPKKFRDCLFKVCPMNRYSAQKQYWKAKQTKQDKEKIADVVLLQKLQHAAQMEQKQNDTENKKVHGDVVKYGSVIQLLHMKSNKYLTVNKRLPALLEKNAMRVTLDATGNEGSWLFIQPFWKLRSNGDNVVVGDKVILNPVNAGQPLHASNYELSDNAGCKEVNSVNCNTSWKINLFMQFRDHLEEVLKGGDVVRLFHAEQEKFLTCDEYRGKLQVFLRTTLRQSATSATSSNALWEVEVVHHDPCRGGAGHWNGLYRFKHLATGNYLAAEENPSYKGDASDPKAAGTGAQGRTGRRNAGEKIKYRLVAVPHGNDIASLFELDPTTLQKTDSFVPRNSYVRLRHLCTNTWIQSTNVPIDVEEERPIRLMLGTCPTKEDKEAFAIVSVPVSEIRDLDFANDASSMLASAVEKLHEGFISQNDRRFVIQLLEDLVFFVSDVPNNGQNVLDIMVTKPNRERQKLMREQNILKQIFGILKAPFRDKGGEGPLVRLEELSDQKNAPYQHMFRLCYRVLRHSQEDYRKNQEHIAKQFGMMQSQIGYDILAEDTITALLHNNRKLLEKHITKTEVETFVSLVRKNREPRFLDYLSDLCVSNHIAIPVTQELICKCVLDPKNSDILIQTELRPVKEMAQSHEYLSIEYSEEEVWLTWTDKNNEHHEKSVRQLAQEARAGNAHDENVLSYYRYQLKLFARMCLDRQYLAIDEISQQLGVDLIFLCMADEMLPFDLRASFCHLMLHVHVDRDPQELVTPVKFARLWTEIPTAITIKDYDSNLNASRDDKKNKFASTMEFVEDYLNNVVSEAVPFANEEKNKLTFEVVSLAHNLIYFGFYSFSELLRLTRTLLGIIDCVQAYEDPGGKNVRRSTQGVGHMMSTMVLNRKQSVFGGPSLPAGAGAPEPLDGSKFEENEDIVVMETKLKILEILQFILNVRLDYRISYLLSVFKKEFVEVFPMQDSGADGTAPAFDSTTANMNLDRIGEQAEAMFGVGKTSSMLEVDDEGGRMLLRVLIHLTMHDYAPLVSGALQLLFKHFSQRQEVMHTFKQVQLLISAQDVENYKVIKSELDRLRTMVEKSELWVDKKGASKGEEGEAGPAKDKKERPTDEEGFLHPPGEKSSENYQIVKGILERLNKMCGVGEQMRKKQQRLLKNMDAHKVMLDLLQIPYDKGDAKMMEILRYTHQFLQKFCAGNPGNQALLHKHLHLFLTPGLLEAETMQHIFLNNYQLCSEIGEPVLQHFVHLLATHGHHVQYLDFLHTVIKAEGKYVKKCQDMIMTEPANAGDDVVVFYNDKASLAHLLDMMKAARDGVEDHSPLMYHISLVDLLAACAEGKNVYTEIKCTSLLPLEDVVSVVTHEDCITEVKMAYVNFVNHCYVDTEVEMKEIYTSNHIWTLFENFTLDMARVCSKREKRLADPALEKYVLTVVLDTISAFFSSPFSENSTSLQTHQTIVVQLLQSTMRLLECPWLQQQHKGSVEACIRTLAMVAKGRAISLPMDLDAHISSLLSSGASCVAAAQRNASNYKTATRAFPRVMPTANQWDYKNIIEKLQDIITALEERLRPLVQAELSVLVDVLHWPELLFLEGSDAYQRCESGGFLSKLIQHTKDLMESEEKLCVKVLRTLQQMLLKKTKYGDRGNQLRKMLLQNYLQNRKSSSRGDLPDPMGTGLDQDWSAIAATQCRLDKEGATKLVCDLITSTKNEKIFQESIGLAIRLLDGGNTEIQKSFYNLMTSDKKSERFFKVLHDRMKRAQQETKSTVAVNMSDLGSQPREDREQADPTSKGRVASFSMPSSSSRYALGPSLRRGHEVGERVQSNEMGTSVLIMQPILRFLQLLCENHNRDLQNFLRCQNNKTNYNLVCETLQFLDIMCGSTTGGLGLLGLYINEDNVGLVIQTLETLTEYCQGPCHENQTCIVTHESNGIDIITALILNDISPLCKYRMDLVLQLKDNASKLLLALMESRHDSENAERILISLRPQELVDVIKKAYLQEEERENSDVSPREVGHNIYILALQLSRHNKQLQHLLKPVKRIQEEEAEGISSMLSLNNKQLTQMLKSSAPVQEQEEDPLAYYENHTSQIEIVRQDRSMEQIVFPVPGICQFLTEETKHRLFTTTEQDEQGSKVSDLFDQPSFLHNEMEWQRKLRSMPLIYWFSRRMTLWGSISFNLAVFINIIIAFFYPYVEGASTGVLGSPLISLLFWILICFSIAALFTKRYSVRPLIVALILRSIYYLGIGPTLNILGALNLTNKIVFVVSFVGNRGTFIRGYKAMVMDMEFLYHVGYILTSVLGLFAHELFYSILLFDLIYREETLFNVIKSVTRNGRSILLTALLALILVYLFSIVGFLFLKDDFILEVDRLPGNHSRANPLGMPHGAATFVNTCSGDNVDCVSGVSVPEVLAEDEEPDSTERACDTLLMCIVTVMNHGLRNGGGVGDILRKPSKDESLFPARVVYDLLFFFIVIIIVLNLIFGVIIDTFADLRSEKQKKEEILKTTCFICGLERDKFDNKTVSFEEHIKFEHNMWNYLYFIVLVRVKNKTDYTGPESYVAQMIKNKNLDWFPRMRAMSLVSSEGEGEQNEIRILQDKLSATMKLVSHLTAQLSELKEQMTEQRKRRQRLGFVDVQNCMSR

SMILES	IC50 [nM]
O=P(O)(O)O[C@@H]1[C@@H](O)[C@H](OP(=O)(O)O)[C@@H](OP(=O)(O)O)[C@H](O)[C@@H]1OP(=O)(O)O	598
O=P(O)(O)O[C@@H]1[C@@H](O)[C@@H](OP(=O)(O)O)[C@@H](OP(=O)(O)O)[C@H](O)[C@H]1OP(=O)(O)O	13.4
